Measured values as given in article PMC4418665, “Cyclization of the Urokinase Receptor-Derived Ser-Arg-Ser-Arg-Tyr Peptide Generates a Potent Inhibitor of Trans-Endothelial Migration of Monocytes” (PLoS ONE, 2015).
Peptide text beside a SMILES is read from it.

Columns and labels:
FPR1 = target: T1, FPR1 (Homo sapiens, UniProt P21462); test: Ligand binding assay, competition with FITC-fMLF at 4°C, THP-1 cells; design: host or cells: THP-1 human monocytic leukemia cells; conditions: excess (100 nM) unlabeled peptide 60 min at 4°C, then 10 nM FITC-fMLF 60 min at 4°C; triplicates
T1 sequence (P21462 1-350): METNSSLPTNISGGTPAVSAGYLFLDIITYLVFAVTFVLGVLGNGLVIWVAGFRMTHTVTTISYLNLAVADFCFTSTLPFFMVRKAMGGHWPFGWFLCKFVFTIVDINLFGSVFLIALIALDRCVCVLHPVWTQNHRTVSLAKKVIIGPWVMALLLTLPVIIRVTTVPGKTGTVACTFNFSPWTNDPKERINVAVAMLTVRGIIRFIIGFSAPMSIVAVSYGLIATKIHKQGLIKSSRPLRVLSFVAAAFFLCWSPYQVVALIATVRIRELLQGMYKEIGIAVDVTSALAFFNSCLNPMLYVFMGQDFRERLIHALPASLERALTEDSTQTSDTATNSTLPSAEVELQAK
Procedure: Once documented that both SRSRY and [SRSRY] peptides compete with fMLF for binding to FPR1, we investigated the effect of [SRSRY] on the motility of monocytes. Preliminarily, we assessed whether [SRSRY] is a ligand of FPR1 on monocyte cell surface. […] (Fig 3A). When binding experiments were performed at 37°C, FPR1 appeared mainly localized within the cytoplasm, adjacent but outside the nucleus of THP-1 cells.
Fig 3 The peptide [SRSRY] binds to FPR1 on THP-1 cell surface. A. THP-1 cells (1.5 x10^6 cells/sample) were pre-incubated with diluents (None), 100 nM fMLF, 100 nM SRSRY or 100 nM [SRSRY] peptides for 60 minutes at 4°C, then exposed to 10 nM N-formyl-Nle-Leu-Phe-Nle-Tyr-Lys-fluorescein (FITC-fMLF) for additional 60 minutes at 4°C. Fluorimetric measurement of cell-associated fluorescence was assed using 485 nm excitation and 535 nm emission filters. Data are expressed as a percentage of the fluorescence associated to THP-1 cells exposed to FITC-fMLF alone (None = 100%) and represent a mean ± SD from triplicates. *Statistical significance (t-test) against None with p<0.001. B. THP-1 cells incubated with diluents (None), 100 nM fMLF, 100 nM SRSRY or 100 nM [SRSRY] peptides for 30 minutes at 37°C and exposed to 10 nM FITC-fMLF for additional 30 minutes at 37°C. Scale bar: 5 μm. Original magnifications: 630x. […]

[1] = system: THP-1 cells crossing HUVEC monolayer; test: Trans-endothelial migration assay, xCELLigence RTCA; format: cell-based, human; conditions: 10 nM peptide, 10% FBS, monitored 10 hours, Cell Index, quadruplicate
Excerpt: Diapedesis of leukocytes plays a key role in the pathogenesis of inflammatory diseases and migration of monocytes from the blood into the sub-endothelial space is one of the earliest events. We investigated the effects of [SRSRY] on the number and morphology of THP-1 seeded to an endothelial monolayer. […] (Fig 5A). To examine the changes in morphology in more detail and quantify monocytes interacting with endothelial monolayer, we performed a subset of experiments using GFP-tagged THP-1, labeling co-cultures for F-actin and recording images by a confocal microscope. […] To further ascertain if [SRSRY] reduces trans-endothelial migration of monocytes, the ability of THP-1 cells to cross an endothelial monolayer was analyzed using the xCELLigence RTCA technology as previously described. […] At this time, reduction of impedance values, due to invading cells that interrupt monolayers was monitored in real-time for 10 hours. […]
Fig 5 [SRSRY] prevents trans-endothelial migration of THP-1 cells. […] Representative images of co-cultures analyzed by phase contrast microscopy at 100x with Scale bar: 50 μm (A) or stained with rhodamine- phalloidin and recorded by a confocal microscope (z-series with 0.25 μm intervals) at 630x with Scale bar: 10 μm (B). […] Fluorescent THP-1 cells which were adherent on the endothelial monolayer were counted on 10 fields/slide at 200x magnification. […]

binding of FITC-fMLF to THP-1 cells (FPR1)	Compound	reduction of THP-1 trans-endothelial migration [1] [%]
dramatically reduced	N=C(N)NCCC[C@H](NC(=O)[C@H](CO)NC(=O)[C@H](CCCNC(=N)N)NC(=O)[C@@H](N)CO)C(=O)N[C@@H](Cc1ccc(O)cc1)C(N)=O [SRSRY, H-Ser-Arg-Ser-Arg-Tyr-NH2] (H-SRSRY-NH2)	
dramatically reduced	N=C(N)NCCC[C@@H]1NC(=O)[C@H](CO)NC(=O)[C@H](Cc2ccc(O)cc2)NC(=O)[C@H](CCCNC(=N)N)NC(=O)[C@H](CO)NC1=O [[SRSRY], [Ser-Arg-Ser-Arg-Tyr]] (cyclo(RSRYS))	35
